Laboratory results published in patent publication US20250041226A1, “MULTIPARTICULATE ALBACONAZOLE COMPOSITION” (PALAU PHARMA, S.L.U., priority 2021, published 2025).

Columns and labels:
[1] = Dissolution test (Ph. Eur. 2.9.3, paddle apparatus, 0.1 N HCl, 45 min); format: physicochemical; details: HCl 0.1N, 45 minutes where stated
Method: • Analytical procedure: Ph. Eur. <2.9.3>; UVNis
• Paddle apparatus. • Stirring speed: 100 rpm. • Dissolution medium: 0.1 N Hydrochloric acid.
0.1 N Hydrochloric acid: using a pipette, transfer 8.5 ml of hydrochloric acid to a 1,000 ml calibrated flask and dilute to volume with water HPLC grade. • Volume of dissolution medium: 900 ml. • Dissolution time: 45 min. • Temperature of dissolution medium: 37±0.5° C.

[2] = Related substances (total impurities) by HPLC in stability experiments; format: physicochemical; details: within the coating
Method: • Analytical procedure: Ph. Eur. <2.2.29>; HPLC
• Column: Luna C18 (2) 5 μm, 150×4.6 mm. • Mobile phase: Acetonitrile/0.5% phosphoric acid as following:
• 0.5% phosphoric acid: using a pipette, transfer 5 ml of o-phosphoric acid (85%) to a 1,000 ml calibrated flask and dilute to volume with water HPLC grade. • Flow: 1.0 ml/min. • Wavelength detection: 210 nm. • Injection volume: 20 μl. • Column temperature: 30° C. • Retention time of Albaconazole: approx. 20.0 min. • Chromatogram time: 29 min.
Test solution: Grind the content (pellets) of, at least, 5 capsules, from the obtained powder weight, accurately, about 150 mg and transfer to a 25 ml calibrated flask. Add about 20 ml of acetonitrile HPLC grade and apply the ultrasound during approximately 10 min. Allow to cool and dilute to volume with acetonitrile HPLC grade. Filter through a 0.45 μm Millex HV-PVDF filter or similar, discard the first drops of filtrate (perform in triplicate).
Individual related substances that are lower than the quantification limit (Quantification limit: QL=0.015%), and any peak corresponding to placebo have not been quantified. The compositions of the invention may be used in the treatment of fungal infections in a patient by orally administering said compositions to said patient.

Structure (SMILES) | Dissolution behaviour (observation in words) [1] | Impurities during stability experiments (in words) [2]
C[C@@H](n1cnc2cc(Cl)ccc2c1=O)[C@](O)(Cn1cncn1)c1ccc(F)cc1F [Albaconazole form Ill, Albaconazole] | excellent dissolution results | low impurities during stability experiments
C[C@@H](n1cnc2cc(Cl)ccc2c1=O)[C@](O)(Cn1cncn1)c1ccc(F)cc1F [crystalline Albaconazole, Albaconazole] | dissolves faster at early times than amorphous Albaconazole | 
